Assay [1] addresses T1, Alpha-ketoglutarate-dependent dioxygenase alkB homolog 3 (Homo sapiens, UniProt Q96Q83).
T1 sequence (Q96Q83 whole entry): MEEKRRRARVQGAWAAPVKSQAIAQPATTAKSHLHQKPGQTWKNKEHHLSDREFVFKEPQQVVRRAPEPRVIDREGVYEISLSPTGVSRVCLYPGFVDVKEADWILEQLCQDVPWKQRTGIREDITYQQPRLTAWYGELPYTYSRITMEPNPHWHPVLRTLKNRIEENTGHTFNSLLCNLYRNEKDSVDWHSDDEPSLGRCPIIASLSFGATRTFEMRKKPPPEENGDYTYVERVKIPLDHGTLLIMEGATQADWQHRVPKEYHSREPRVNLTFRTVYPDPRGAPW
Description: Inhibition of recombinant human AlkBH3 assessed as reduction in formaldehyde release using 40-mer single N3-meC as substrate incubated for 60 mins followed by substrate addition measured after 15 mins by fluorescence assay.

Assay [2] has as its target T2, Alpha-ketoglutarate-dependent dioxygenase alkB homolog 3 (Homo sapiens) (UniProt Q96Q83).
T2 sequence (whole entry): T1 sequence (Q96Q83 whole entry)
The experiment in a line: Inhibition of recombinant human AlkBH3 assessed as reduction in formaldehyde release at 50 uM using 40-mer single N3-meC as substrate incubated for 60 mins followed by substrate addition measured after 15 mins by fluorescence assay.

Assay [3] relates to A549. Description: Cytotoxicity against human A549 cells assessed as decrease in cell viability at 1 uM after 12 to 60 mins by MTT assay. It is filed as functional, cell-based. Background: Formazan colour is commonly taken as a measure of viable cells.
Assay [4] relates to A549. Description: Cytotoxicity against human A549 cells assessed as decrease in cell viability after 48 to 72 hrs by MTT assay. Type of assay: functional, cell-based.
Assay [5] deals with T2, Alpha-ketoglutarate-dependent dioxygenase alkB homolog 3 (Homo sapiens). The experiment in a line: Inhibition of AlkBH3 in human A549 cells assessed as increase in MMS-induced cytotoxicity at 1 uM after 48 hrs by MTT assay. Type of assay: cell-based.
Assay [6] has the same target. The experiment in a line: Mixed type inhibition of recombinant human AlkBH3 assessed as reduction in formaldehyde release at 50 to 500 uM using varying levels of 2OG as substrate incubated for 60 mins followed by substrate addition measured after 15 mins by Lineweaver-Burk plot analysis.
Assay [7] has as its target T1, Alpha-ketoglutarate-dependent dioxygenase alkB homolog 3. Description: Binding affinity to recombinant human AlkBH3 incubated for 2 mins by isothermal titration calorimetric method.
Assay [8] concerns the target T2, Alpha-ketoglutarate-dependent dioxygenase alkB homolog 3 (Homo sapiens). Description: Competitive inhibition of recombinant human AlkBH3 assessed as reduction in formaldehyde release at 50 to 500 uM using 40-mer internal N3me-oligo-dC as substrate incubated for 60 mins followed by substrate addition measured after 15 mins by Lineweaver-Burk plot analysis.
The target is the same in assay [9]. Description: Binding affinity to recombinant human AlkBH3 at 12 uM after 1 hr by near-UV circular dichroism spectroscopy. In general terms: Circular dichroism is the unequal absorption of left and right circularly polarised light.
For assay [10] the target is unchanged. The experiment in a line: Binding affinity to recombinant human AlkBH3 at 12 uM after 1 hr by far-UV circular dichroism spectroscopy.
Assay [11] relates to A549. Description: Cytotoxicity against human A549 cells assessed as decrease in cell viability at 500 uM after 48 to 72 hrs by MTT assay. It is filed as functional, cell-based.

The source made the active and inactive calls. The calls are words filed in the database; no cut-off is given here. Bounds are passed on as bounds.

Regarding `Cc1ccc2c(c1)C(c1ccccc1)=C(c1ccccc1)C2=O`, the IC50 in assay [1] is above 50 µM.
In the case of `COc1ccc(C2=C(Br)C(=O)c3ccc(C)cc32)cc1OC`, in [1], the IC50 is above 50 µM.
As for `COc1ccc(C2=C(c3cc(OC)cc(OC)c3)C(=O)c3ccc(C)cc32)cc1`, in assay [1], the IC50 is above 50 µM.
Still for that read-out and setting: then `Cc1ccc(C2=C(c3ccc(C)cc3)c3cc(C)ccc3C2=O)cc1`, with above 50 µM; and `COc1ccc(C2=C(c3cc(OC)cc(OC)c3)C(=O)c3ccc(-c4ccc(C)cc4)cc32)cc1`, with above 50 µM.
For `Cc1ccc2c(c1)C(c1ccc(Cl)c(Cl)c1)=C(c1ccc(Cl)c(Cl)c1)C2=O`, the inhibition entry in assay [2] was “Active”. For the same compound, the IC50 in assay [1] amounted to 32.3 µM.
Consider `COc1ccc(C2=C(Br)C(=O)c3ccc(C)cc32)cc1`, for which, in assay [1], the IC50 was 43.2 µM.
For `COc1cccc(C2=C(c3cccc(OC)c3)c3cc(-c4ccccc4)ccc3C2=O)c1`, the IC50 in [1] is above 50 µM.
Same read-out and setting: then `COc1ccc(C2=C(c3ccc(OC)cc3)c3cc(-c4ccccc4)ccc3C2=O)cc1`, with above 50 µM.
Consider `COc1ccc(C2=C(Cl)C(=O)c3ccc(-c4ccccc4)cc32)cc1`, for which the IC50 is above 50 µM in assay [1] and 370 µM in the assay on A549 [4]. The result in the assay on A549 [3] was inactive. Further, the inhibition entry in assay [5] is “inactive”.
As for `Cc1ccc2c(c1)C(c1cccc3ccccc13)=C(Br)C2=O`, the IC50 in assay [1] is above 50 µM.
For `COc1cccc(C2=C(c3cccc(OC)c3)c3cc(-c4ccc(C)cc4)ccc3C2=O)c1`, in [2], the inhibition entry was “Active”. Further, in [1], the IC50 was determined as 13.1 µM.
In the case of `COc1ccc(C2=C(c3ccc(OC)c(OC)c3)c3cc(-c4ccc(C)cc4)ccc3C2=O)cc1OC`, the concentration for half-maximal inhibition (IC50) in [1] is above 50 µM.
Turning to `COc1cc(OC)cc(C2=C(Br)C(=O)c3ccc(C)cc32)c1`, in [1], the IC50 is above 50 µM.
As for `Cc1ccc2c(c1)C(c1ccccc1)=C(Br)C2=O`, the IC50 in [1] was above 50 µM.
Consider `COc1cccc(C2=C(c3cccc(OC)c3)c3cc(C)ccc3C2=O)c1`, for which, in assay [1], the IC50 is above 50 µM.
`Cc1ccc(C2=C(Br)C(=O)c3ccc(C)cc32)cc1`: the half-inhibitory concentration (IC50) in assay [1] was above 50 µM.
As to `COc1ccc(C2=C(c3cc(OC)cc(OC)c3)C(=O)c3ccc(-c4ccccc4)cc32)cc1`, the IC50 in [1] was above 50 µM.
As for `COc1ccc(C2=C(Cl)C(=O)c3ccc(-c4ccc(C)cc4)cc32)cc1`, the inhibition result in assay [2], in assay [6], in assay [8] and in [5] was “Active” throughout. Moreover, the Kd in assay [7] worked out at 7.81 µM. Besides, the IC50 was 9.8 µM in assay [1] and 18 µM in the assay with A549 [4]. Also, the result (with A549 [3]; in assay [9]; in assay [10]) was Active. Besides, the Activity result in the assay with A549 [4] is “Dose-dependent effect”.
For `O=C1C(c2ccccc2)=C(c2ccccc2)c2cc(-c3ccccc3)ccc21`, the IC50 in assay [1] is above 50 µM.
With `COc1ccc(C2=C(c3ccc(OC)c(OC)c3)c3cc(-c4ccccc4)ccc3C2=O)cc1OC`, the concentration for half-maximal inhibition (IC50) in assay [1] is above 50 µM.
As to `COc1ccc(C2=C(c3ccc(OC)c(OC)c3)c3cc(C)ccc3C2=O)cc1OC`, the IC50 in [1] is above 50 µM.
Consider `COc1ccc(C2=C(Cl)C(=O)c3ccc(C)cc32)cc1`, for which, in assay [1], the IC50 was above 50 µM. The outcome with A549 [11] and with A549 [3] was inactive. Besides, the inhibition result in [5] is “inactive”.
`COc1ccc(C2=C(c3cc(OC)cc(OC)c3)c3cc(C)ccc3C2=O)cc1`: in [1], the IC50 was above 50 µM.
With `COc1ccc(C2=C(c3ccc(OC)cc3)c3cc(C)ccc3C2=O)cc1`, the IC50 in assay [1] was above 50 µM.

For orientation: IC50 means the concentration needed to halve the response being measured. Broadly, the Kd is a measure of binding affinity in units of concentration.

For the origin of these results see ChEMBL document CHEMBL4229474, “Indenone derivatives as inhibitor of human DNA dealkylation repair enzyme AlkBH3” (Bioorg Med Chem, 2018).
